{"source": "paper PMC6881293", "about": "“Nanomolar-potency ‘co-potentiator’ therapy for cystic fibrosis caused by a defined subset of minimal function CFTR mutants” (Scientific Reports, 2019)", "key": {"N1303K-CFTR": {"biological_target": "T1, N1303K-CFTR (Homo sapiens, UniProt P13569, N1303K)", "T1 construct": "expressed in transfected cells", "T1 sequence (P13569 whole entry N1303K)": "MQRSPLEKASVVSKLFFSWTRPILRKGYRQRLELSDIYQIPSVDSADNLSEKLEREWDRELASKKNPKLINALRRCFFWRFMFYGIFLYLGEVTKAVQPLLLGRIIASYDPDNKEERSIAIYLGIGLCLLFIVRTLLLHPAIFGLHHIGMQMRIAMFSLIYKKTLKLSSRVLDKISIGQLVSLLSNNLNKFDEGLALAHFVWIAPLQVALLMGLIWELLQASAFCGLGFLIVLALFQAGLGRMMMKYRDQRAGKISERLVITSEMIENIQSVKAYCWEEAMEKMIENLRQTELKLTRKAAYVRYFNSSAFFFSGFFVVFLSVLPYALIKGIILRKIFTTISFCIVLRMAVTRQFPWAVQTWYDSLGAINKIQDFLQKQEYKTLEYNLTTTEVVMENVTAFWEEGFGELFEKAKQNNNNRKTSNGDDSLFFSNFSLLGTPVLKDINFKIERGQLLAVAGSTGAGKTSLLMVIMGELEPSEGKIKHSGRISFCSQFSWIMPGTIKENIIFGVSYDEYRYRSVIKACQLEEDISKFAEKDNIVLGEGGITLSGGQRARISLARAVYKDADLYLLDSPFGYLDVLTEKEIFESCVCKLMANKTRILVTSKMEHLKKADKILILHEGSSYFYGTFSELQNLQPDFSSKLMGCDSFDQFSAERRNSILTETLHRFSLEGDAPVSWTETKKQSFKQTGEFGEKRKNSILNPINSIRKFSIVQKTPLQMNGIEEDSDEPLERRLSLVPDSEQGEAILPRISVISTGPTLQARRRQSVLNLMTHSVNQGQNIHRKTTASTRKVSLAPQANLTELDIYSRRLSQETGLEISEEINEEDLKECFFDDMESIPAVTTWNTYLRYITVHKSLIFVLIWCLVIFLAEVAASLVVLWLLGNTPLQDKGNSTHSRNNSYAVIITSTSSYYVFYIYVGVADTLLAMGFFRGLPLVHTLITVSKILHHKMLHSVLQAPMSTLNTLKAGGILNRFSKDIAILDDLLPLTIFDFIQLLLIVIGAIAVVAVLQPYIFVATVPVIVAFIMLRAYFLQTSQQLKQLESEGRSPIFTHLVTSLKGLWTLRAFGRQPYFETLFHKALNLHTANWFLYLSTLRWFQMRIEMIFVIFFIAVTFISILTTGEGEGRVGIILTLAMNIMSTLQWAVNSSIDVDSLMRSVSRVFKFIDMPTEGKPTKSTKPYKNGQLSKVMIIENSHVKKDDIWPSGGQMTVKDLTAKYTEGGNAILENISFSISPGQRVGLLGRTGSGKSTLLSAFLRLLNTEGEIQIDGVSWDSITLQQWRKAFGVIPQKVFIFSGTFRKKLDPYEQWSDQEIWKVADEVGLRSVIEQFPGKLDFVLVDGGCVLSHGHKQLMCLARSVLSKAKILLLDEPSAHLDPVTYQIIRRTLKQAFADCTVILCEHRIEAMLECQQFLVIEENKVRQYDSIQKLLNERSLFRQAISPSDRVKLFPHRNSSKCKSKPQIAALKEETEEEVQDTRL", "experiment": "Short-circuit current in FRT cells expressing N1303K-CFTR", "format": "cell-based", "method": "Based on prior studies[10],[11],[20], we hypothesized that distinct binding sites may be required to bind a potentiator and co-potentiator to rescue channel activity of CFTR mutants. We defined the potentiator VX-770 as a Class I compound, and co-potentiator ASP-11 as a Class II compound (Fig. 3A,D). Short-circuit current measurements in N1303K-CFTR-expressing FRT cells confirmed synergy when ASP-11 was added after VX-770 (Fig. 3Bi). […] In each experiment, CFTRinh-172 confirmed that current was from CFTR.\nFigure 3 Definition of Class I and II CFTR potentiators. (A) Chemical structures of Class I and II potentiators. (B) Short-circuit current in FRT cells expressing N1303K-CFTR in response to forskolin and indicated potentiators. Concentrations: 20 μM forskolin, 5 μM VX-770, 20 μM ASP-11, 20 μM GLPG1837, 20 μM P2, 20 μM P3, 20 μM P5, 20 μM W1282Xpot-C01, and 10 μM CFTRinh-172. C. Short-circuit current in FRT cells expressing Q1313X-CFTR in response to forskolin and indicated potentiators. Concentrations: as in panel B, and 25 μM apigenin. (D) Summary of relative N1303K-CFTR activation in response to combinations of Class I and Class II potentiators. Mean ± S.E.M., n = 3. TEXT PRINTED IN THE PICTURE: (D) VX-770: N1303K-CFTR: P5: 1% ±1%; N1303K-CFTR: GLPG 1837: 10% ±5%; N1303K-CFTR: ASP-11: 100% ±3%; N1303K-CFTR: apigenin: 100% ±5% | (D) P5: N1303K-CFTR: VX-770: 1% ±1%; N1303K-CFTR: GLPG 1837: 2% ±2%; N1303K-CFTR: ASP-11: 52% ±5%; N1303K-CFTR: apigenin: 56% ±5% | (D) GLPG 1837: N1303K-CFTR: VX-770: 0% ±5%; N1303K-CFTR: P5: 2% ±2%; N1303K-CFTR: ASP-11: 100% ±4%; N1303K-CFTR: apigenin: 98% ±5% | (D) ASP-11: N1303K-CFTR: VX-770: 100% ±3%; N1303K-CFTR: P5: 47% ±4%; N1303K-CFTR: GLPG 1837: 100% ±5%; N1303K-CFTR: apigenin: 7% ±3% | (D) apigenin: N1303K-CFTR: VX-770: 100% ±5%; N1303K-CFTR: P5: 50% ±5%; N1303K-CFTR: GLPG 1837: 100% ±5%; N1303K-CFTR: ASP-11: 5% ±2% DOUBTS OF THE COPYIST ABOUT THIS PICTURE: Panel D is a matrix of pairs of substances (row substance combined with column substance). The picture prints no name for the measure, only % values and a 0%–100% colour scale. / The print in panel D is small, so 3, 5, 6 and 8 are hard to tell apart in these values. / VX-770 / GLPG 1837: ±5% could be ±3% / VX-770 / ASP-11: ±3% could be ±5% / VX-770 / apigenin: ±5% could be ±3% / P5 / ASP-11: 52% ±5%, digits uncertain / P5 / apigenin: 56% could be 58%, and ±5% is uncertain / GLPG 1837 / VX-770: 0% ±5%, error digit uncertain / GLPG 1837 / apigenin: 98% could be 96%, and ±5% is uncertain / ASP-11 / VX-770: ±3% could be ±5% / ASP-11 / GLPG 1837: ±5% could be ±3% / ASP-11 / apigenin: 7% ±3%, error digit uncertain / apigenin / VX-770: ±5% could be ±3% / apigenin / P5: 50% ±5%, digits uncertain / apigenin / GLPG 1837: ±5% could be ±3% / apigenin / ASP-11: 5% ±2%, the 5 is uncertain\n(§1) Figures 5C,D show data in N1303K- and Q1313X-expressing FRT cells.\n(§2) Short-circuit current was measured on cells cultured on Snapwell clear permeable supports (Corning) as described[10],[11]. Hemichambers were connected to a DVC-1000 voltage clamp (World Precision Instruments Inc., Sarasota, FL) via Ag/AgCl electrodes and 3 M KCl agar bridges for recording of the short-circuit current. For human airway epithelial cells, symmetrical HCO3^−-buffered solutions (in mM: 120 NaCl, 5 KCl, 1 MgCl2, 1 CaCl2, 5 Hepes, 25 NaHCO3, 10 glucose, pH 7.4) for basolateral and apical side were used. For FRT cells, the basolateral membrane was permeabilized with 250 μg/ml amphotericin B, and experiments were done with a chloride gradient using a HCO3^−-buffered solutions (Basolateral (mM): 120 NaCl, 5 KCl, 1 MgCl2, 1 CaCl2, 5 Hepes, 25 NaHCO3, 10 glucose, pH 7.4; apical (mM): 60 NaCl, 60 mM sodium gluconate, 5 KCl, 1 MgCl2, 1 CaCl2, 5 Hepes, 25 NaHCO3, 10 glucose, pH 7.4). All cells were equilibrated with 95% O2, 5% CO2 and maintained at 37 °C during experiments."}, "Q1313X-CFTR": {"biological_target": "T2, Q1313X-CFTR (Homo sapiens, UniProt P13569)", "T2 construct": "expressed in transfected cells", "T2 sequence (P13569 1-1312 limits assumed)": "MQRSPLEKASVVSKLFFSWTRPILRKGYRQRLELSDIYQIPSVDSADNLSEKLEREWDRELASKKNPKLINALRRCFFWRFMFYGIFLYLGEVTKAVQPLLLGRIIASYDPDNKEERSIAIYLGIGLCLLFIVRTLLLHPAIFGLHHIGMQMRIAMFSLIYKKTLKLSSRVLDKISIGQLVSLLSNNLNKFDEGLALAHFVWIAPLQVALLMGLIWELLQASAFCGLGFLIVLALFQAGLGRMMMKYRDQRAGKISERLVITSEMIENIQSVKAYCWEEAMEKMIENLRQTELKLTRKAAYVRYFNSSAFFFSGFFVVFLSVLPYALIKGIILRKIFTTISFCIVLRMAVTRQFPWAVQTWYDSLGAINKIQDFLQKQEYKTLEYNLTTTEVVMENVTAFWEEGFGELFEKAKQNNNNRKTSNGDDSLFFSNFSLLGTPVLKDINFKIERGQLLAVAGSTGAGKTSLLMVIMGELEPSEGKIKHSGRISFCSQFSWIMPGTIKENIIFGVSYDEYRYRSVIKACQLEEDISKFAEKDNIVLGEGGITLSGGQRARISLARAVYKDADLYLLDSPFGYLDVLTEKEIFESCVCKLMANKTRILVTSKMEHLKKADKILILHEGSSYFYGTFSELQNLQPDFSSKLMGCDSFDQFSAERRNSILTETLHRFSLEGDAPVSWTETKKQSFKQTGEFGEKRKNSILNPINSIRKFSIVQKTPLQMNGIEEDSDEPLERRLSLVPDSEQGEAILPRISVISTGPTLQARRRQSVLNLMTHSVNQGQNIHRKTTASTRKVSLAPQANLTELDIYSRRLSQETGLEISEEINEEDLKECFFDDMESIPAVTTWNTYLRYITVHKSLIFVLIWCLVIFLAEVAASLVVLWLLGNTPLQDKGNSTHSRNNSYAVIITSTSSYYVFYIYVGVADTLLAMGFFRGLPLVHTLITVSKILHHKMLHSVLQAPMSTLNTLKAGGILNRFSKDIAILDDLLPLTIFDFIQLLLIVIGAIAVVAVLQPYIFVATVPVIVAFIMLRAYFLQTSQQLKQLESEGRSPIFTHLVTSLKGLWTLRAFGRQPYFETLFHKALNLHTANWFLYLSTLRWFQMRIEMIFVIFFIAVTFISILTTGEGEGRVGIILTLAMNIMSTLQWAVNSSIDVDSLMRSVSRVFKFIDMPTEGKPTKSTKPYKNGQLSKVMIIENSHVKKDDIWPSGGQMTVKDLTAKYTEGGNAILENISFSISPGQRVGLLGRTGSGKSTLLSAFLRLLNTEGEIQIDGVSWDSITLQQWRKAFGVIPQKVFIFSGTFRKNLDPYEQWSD", "experiment": "Short-circuit current in FRT cells expressing Q1313X-CFTR", "format": "cell-based", "method": "As shown in Fig. 1C and summarized in Fig. 2, ASP-11 acted in synergy with VX-770 to increase chloride current in FRT cells expressing the NBD2 mutations I1234del- and Q1313X-CFTR by ~3–9-fold compared to VX-770. I1234del- and Q1313X-CFTR-expressing cells were also treated with VX-809 for 24 hours (to consider the effect of available CFTR therapeutics) with 2–3-fold greater currents observed.\nStudies on FRT cells expressing Q1313X-CFTR produced similar data (Fig. 3C).\nas §1, §2"}}, "note": "pEC50: −log10 of the molar value.", "data": [{"smiles": "CCCCn1cc(S(=O)(=O)Nc2ccc(CC)cc2)c2cccnc21", "note": "[ASP-11]", "values": [{"measurement": "activation by two Class II potentiators added together", "setting": "N1303K-CFTR; N1303K-CFTR FRT cells, 20 μM W1282Xpot-C01 and 20 μM ASP-11, no Class I potentiator", "result": "little activation"}, {"measurement": "short-circuit current response when added after VX-770", "setting": "N1303K-CFTR; N1303K-CFTR FRT cells, 20 μM forskolin, 5 μM VX-770, then 20 μM compound", "result": "synergy"}, {"measurement": "increase in chloride current with ASP-11 plus VX-770 compared to VX-770 alone", "setting": "Q1313X-CFTR; Q1313X-CFTR FRT cells, 20 µM forskolin, 5 µM VX-770, 20 µM ASP-11, range stated jointly for I1234del- and Q1313X-CFTR", "result": "3–9 fold"}]}, {"smiles": "CC(C)(C)c1cc(C(C)(C)C)c(NC(=O)c2c[nH]c3ccccc3c2=O)cc1O", "note": "[VX-770, ivacaftor]", "values": [{"measurement": "short-circuit current response when added after GLPG1837", "setting": "N1303K-CFTR; N1303K-CFTR FRT cells, 20 μM forskolin, 20 μM GLPG1837", "result": "mildly reduced current"}, {"measurement": "short-circuit current response when added after GLPG1837", "setting": "Q1313X-CFTR; Q1313X-CFTR FRT cells, 20 μM forskolin, 20 μM GLPG1837", "result": "reduced current"}]}, {"smiles": "COc1ccc2[nH]c3c(c2c1)CCNC31CCN(Cc2ccc(F)cc2F)CC1", "note": "[Compound A061]", "values": [{"measurement": "pEC50", "setting": "N1303K-CFTR; FRT cells expressing N1303K-CFTR, after 20 µM forskolin and 5 µM VX-770", "result": 5.54}, {"measurement": "pEC50", "setting": "Q1313X-CFTR; FRT cells expressing Q1313X-CFTR, after 20 µM forskolin and 5 µM VX-770", "result": 5.30}]}]}
